Test [1] relates to Rat lipocytes. The experiment in a line: Glucose uptake, D-[U-14C]-glucose, rat lipocytes. Format: cell-based. The settings on record: D-glucose 22 μM. The method, then:
(§1) The biological activity of the peptides according to the invention, of the formula I and II, is determined using lipocytes and pieces of diaphragm obtained by dissection from rats. The term tripeptide means Tyr Cys Asn-OH and hexapeptide means acetyl-Leu Glu Asn Tyr Cys Asn-OH. The term "baseline" means the activity without stimulation, insulin means human insulin and dpm means radioactive disintegrations per minute. The term peptid denotes peptides having insulin activity according to the present invention. Rat lipocytes were prepared as follows:
Epididymal adipose tissue (Wistar rat, 160-180 g, no feed restriction) is digested with collagenase, and the resulting single lipocytes are washed several times by flotation.
(§2) The two following tests measure the glucose uptake which can be stimulated by insulin and which requires the functional insulin signal-transmission cascade and glucose transport, irrespective of whether glucose is metabolized by oxidation (glycolysis, pentose phosphate pathway) or not by oxidation. The conversion into lipids, glycogen or membrane-impermeable intermediates (glucose 6-phosphate), but not the production of lactate, is followed.
a) Rat lipocytes are incubated in the presence or absence of insulin or peptide with D-[U-^14 C]-glucose (final concentration of D-glucose 22 μM). The cells are separated from the medium by centrifugation through a silicone oil layer and are reisolated, and the cell-associated radioactivity is determined.

In test [2] the test system is Pieces of diaphragm. The experiment in a line: Glucose uptake, D-[U-14C]-glucose, pieces of diaphragm. Format: cell-based, rat. The settings on record: D-glucose 75 μM. Here is the method: as §1
(§3) Preparation of pieces of diaphragm from rats: small pieces of tissue (5 mm diameter) are punched out of hemidiaphragms (Wistar rat, 60-70 g, no feed restriction) washed several times.
as §2
b) Pieces of diaphragm are incubated in the presence or absence of insulin or peptide with D-[U-^14 C]-glucose (final concentration of D-glucose 75 μM). The medium is aspirated out. The pieces of tissue are washed several times and subsequently solubilized by alkali treatment for the determination of radioactivity.

For test [3], the system named is Rat lipocytes. The experiment in a line: Glucose transport, 2-deoxy-D-[1-3H]-glucose, rat lipocytes. It is filed as cell-based. The settings on record: glucose 0.2 mM. The method, then:
Epididymal adipose tissue (Wistar rat, 160-180 g, no feed restriction) is digested with collagenase, and the resulting single lipocytes are washed several times by flotation. Lipocytes and pieces of diaphragm are prepared as in Example 5. The following tests measure exclusively the specific glucose transport which can be stimulated by insulin (facilitated diffusion) through the plasma membrane by means of glucose carriers, including the insulin signal-transmission cascade. Any effect of glucose metabolism on glucose transport is ruled out by using the non-metabolizable glucose analog. a) Rat lipocytes are incubated in the presence or absence of insulin or peptide with 2-deoxy-D-[1-^3 H]-glucose (final concentration of D-glucose 0.2 mM) and L-[1-^14 C]-glucose (not transportable). To determine the radioactivity ([^3 H] and [^14 C]) the cells are separated from the medium by centrifugation through an oil layer. The specific stereoselective glucose transport is calculated as the difference between the total cell-bound radioactivity ([^3 H]-glucose) and the associated radioactivity due to diffusion and non-specific effects ([C]-glucose).

Test [4] concerns Pieces of diaphragm. Description: Glucose transport, 2-deoxy-D-[1-3H]-glucose, pieces of diaphragm. Format: cell-based, rat. As to conditions: glucose 0.1 mM. Here is the method:
as §3
Lipocytes and pieces of diaphragm are prepared as in Example 5. The following tests measure exclusively the specific glucose transport which can be stimulated by insulin (facilitated diffusion) through the plasma membrane by means of glucose carriers, including the insulin signal-transmission cascade. Any effect of glucose metabolism on glucose transport is ruled out by using the non-metabolizable glucose analog.
b) Pieces of diaphragm are incubated in the presence or absence of insulin or peptide with 2-deoxy-D-[1-^3 H]-glucose (final concentration of D-glucose 0.1 mM) and L-[1-^14 C]-glucose. The pieces of tissue are separated from the medium by rapid filtration through glass fiber filters and are thoroughly washed. The radioactivity is measured in an alkaline extract.

The subject of test [5] is Rat lipocytes. Description: Esterification in vitro of glycerol 3-phosphate in saponin-permeabilized lipocytes. It is filed as cell-based. Here is the method: This test measures the esterification of glycerol 3-phosphate which can be stimulated by insulin in lipid products (triglycerides, phospholipids). The enzymes of lipid synthesis (for example acyl-CoA: L-glycerol 3-phosphate acyltransferase) are involved in this, including a functional insulin signal-transmission cascade. […] The incubation is continued after addition of L-[U-^14 C]-glycerol 3-phosphate. Toluene-soluble scintillation cocktail is added and the lipid is separated from the aqueous phase by centrifugation. The toluene phase containing the lipid is removed and its radioactivity is determined.

Test [6] deals with Rat lipocytes. The experiment in a line: Lipogenesis in trypsin-treated rat lipocytes (insulin receptor inactivated). Format: cell-based. Here is the method:
Rat lipocytes from Example 5 are treated with low concentrations of trypsin to inactivate the insulin receptor by proteolysis. After addition of protease inhibitors, the cells are washed twice by flotation, and the incubation is continued at 37° C. for 15 min. These cells are then used for the test of stimulation of lipogenesis by the peptides. […] This means that this test measures stimulation of lipogenesis owing to interventions in the insulin signal-transmission cascade after receptor binding of insulin.

Another test deals with Balb-C mice. The experiment in a line: Blood glucose profile in mice. It is filed as in vivo. As to conditions: intravenous. Here is the method: Female Charles River Wiga Balb-C mice weighing 17 to 21 g (about 30 days old) receive a standard diet. The mice receive no food for 16 hours before the start of the experiment. 5 animals in each experimental group receive intravenous administration of an aqueous solution (pH 6) of the compound from Example 4 (octapeptide). Volume administered 0.3 ml/animal.
The average for each experimental group is indicated in each case.

Residues, ends and D or L forms follow the SMILES beside them.

With `NC(=O)C[C@H](NC(=O)[C@H](CS)NC(=O)[C@@H](N)Cc1ccc(O)cc1)C(=O)O` [Tripeptide, H-Tyr-Cys-Asn-OH] (H-Tyr-Cys-Asn-OH), the Glucose uptake with Rat lipocytes [1] (peptide 0.1 Mm) is reported as 1838 dpm; in the test on Rat lipocytes [1] (peptide 0.5 Mm) it was 2947 dpm; in the test on Rat lipocytes [1] (peptide 1 Mm), 6533 dpm; with Pieces of diaphragm [2] (peptide 0.1 Mm), 7591 dpm; in the test with Pieces of diaphragm [2] (peptide 0.5 Mm) it was 8540 dpm; in the test with Pieces of diaphragm [2] (peptide 1 Mm) it was 11588 dpm. Further, the Glucose transport is reported as 2289 dpm with Rat lipocytes [3] (peptide 0.1 Mm); 3055 dpm in the test on Rat lipocytes [3] (peptide 0.5 Mm); 5781 dpm in the test with Rat lipocytes [3] (peptide 1 Mm); 8836 dpm in the test on Pieces of diaphragm [4] (peptide 0.1 Mm); 9822 dpm in the test on Pieces of diaphragm [4] (peptide 0.5 Mm); 11252 dpm in the test with Pieces of diaphragm [4] (peptide 1 Mm). The results for the Esterification with lipocytes with Rat lipocytes [5] (peptide 0.5 mM), with Rat lipocytes [5] (peptide 0.1 Mm) and in the test with Rat lipocytes [5] (peptide 1 Mm) were 4422 dpm, 3710 dpm and 5398 dpm, respectively. For the same compound, the Lipogenesis in the test with Rat lipocytes [6] (peptide 0.5 mM) was determined as 4145 dpm; with Rat lipocytes [6] (peptide 0.1 Mm), 3250 dpm; in the test with Rat lipocytes [6] (peptide 1 Mm), 5072 dpm.

Turning to “Ac-LENYCN-OH [Hexapeptide, Acetyl-Leu-Glu-Asn-Tyr-Cys-Asn-OH]”, the Glucose uptake in the test with Rat lipocytes [1] (peptide 0.1 Mm) is recorded as 1488 dpm; with Rat lipocytes [1] (peptide 0.5 Mm), 1917 dpm; in the test on Rat lipocytes [1] (peptide 1 Mm) it was 4218 dpm; in the test on Pieces of diaphragm [2] (peptide 0.1 Mm), 7429 dpm; in the test with Pieces of diaphragm [2] (peptide 0.5 Mm), 7752 dpm; in the test on Pieces of diaphragm [2] (peptide 1 Mm), 8597 dpm. In addition, the Glucose transport is on record as 2218 dpm with Rat lipocytes [3] (peptide 0.1 Mm); 2842 dpm in the test with Rat lipocytes [3] (peptide 0.5 Mm); 3922 dpm in the test on Rat lipocytes [3] (peptide 1 Mm); 8450 dpm in the test on Pieces of diaphragm [4] (peptide 0.1 Mm); 8928 dpm in the test with Pieces of diaphragm [4] (peptide 0.5 Mm); 9676 dpm in the test on Pieces of diaphragm [4] (peptide 1 Mm).

On to “H-Tyr(Bu^t)-Gln-Leu-Glu(OBu^t)-Asn-Tyr(Bu^t)-Cys(Trt-Asn-Obu^t.HBr [Octapeptide]”, for which the “Blood glucose level, percentage difference to control group” value is recorded as -2% in the test on Balb-C mice (500 μg/animal, 20 minutes); -5% with Balb-C mice (500 μg/animal, 40 minutes); -13% in the test on Balb-C mice (500 μg/animal, 60 minutes); -21% with Balb-C mice (500 μg/animal, 75 minutes); -21% in the test with Balb-C mice (500 μg/animal, 90 minutes); -31% in the test on Balb-C mice (1000 μg/animal, 20 minutes). The “Blood glucose level, percentage difference to control group” value is -19% in the test with Balb-C mice (1000 μg/animal, 40 minutes); -23% in the test on Balb-C mice (1000 μg/animal, 60 minutes); -24% in the test on Balb-C mice (1000 μg/animal, 75 minutes); -19% with Balb-C mice (1000 μg/animal, 90 minutes).

For the compound Insulin: insulin means human insulin, the Glucose uptake in the test on Rat lipocytes [1] (insulin 0.5 ng) came to 4379 dpm; with Rat lipocytes [1] (insulin 5 ng), 26312 dpm; with Pieces of diaphragm [2] (insulin 0.5 ng), 10055 dpm; with Pieces of diaphragm [2] (insulin 5 ng) it was 20841 dpm. For the same compound, the Glucose transport with Rat lipocytes [3] (insulin 0.5 ng) amounted to 4851 dpm; in the test with Rat lipocytes [3] (insulin 5 ng), 20342 dpm; with Pieces of diaphragm [4] (insulin 0.5 ng), 10828 dpm; in the test on Pieces of diaphragm [4] (insulin 5 ng) it was 17750 dpm. This compound came in with an Esterification with lipocytes with Rat lipocytes [5] (insulin 5 ng) of 3640 dpm. This compound displayed a Lipogenesis with Rat lipocytes [6] (insulin 5 ng) of 3087 dpm.

For the origin of these results see patent US5461035A, “Short peptides with insulin activity” (priority 1990, dated 1995).
